The numbers were not newly measured in US20220362410A1, “PREFERRED ANTERIOR CAPSULOTOMY LOCATION PROVIDED BY TRYPAN BLUE OPTHALMIC SOLUTION” (Excel-Lens, Inc., priority 2018, published 2022), which cites them from elsewhere.

For the data set, the system named is cell toxicity. Conditions: concentrations above the range 0.2 to 0.45%.

For `Cc1cc(-c2ccc(/N=N/c3c(S(=O)(=O)O)cc4cc(S(=O)(=O)O)cc(N)c4c3O)c(C)c2)ccc1/N=N/c1c(S(=O)(=O)O)cc2cc(S(=O)(=O)O)cc(N)c2c1O` [Trypan Blue], the cell toxicity entry is “cell toxicity was noted”.
